# Data as given in publication PMC8286840, “Identifying SARS-CoV-2 antiviral compounds by screening for small molecule inhibitors of Nsp3 papain-like protease” (Biochemical Journal, 2021).
# Structures can show the parent of a compound that is named as a salt. Where two headings read alike, the source gives them in different places.
# Legend:
# [1] = target: T1, SARS-CoV-2 PLpro (nsp3 1564–1878) (Severe acute respiratory syndrome coronavirus 2, UniProt P0DTD1); experiment: biochemical; design: FRET-quenched peptide (Pro3) cleavage by PLpro, 10 min pre-incubation, slope over 20 min, normalised to no-compound control; details: high concentration screen, read-out: % of control remaining
# [2] = target: T1, SARS-CoV-2 PLpro (nsp3 1564–1878); experiment: biochemical; design: FRET-quenched peptide (Pro3) cleavage by PLpro, 10 min pre-incubation, slope over 20 min, normalised to no-compound control; details: low concentration screen, read-out: % of control remaining
smiles,measurement,setting,value
COC1=CC(=O)C[C@@H](C)[C@]12Oc1c(Cl)c(OC)cc(OC)c1C2=O [(+)-Griseofulvin],remaining activity at 3.75 µM,[1]; Well no.=3354,90.2%
same,remaining activity at 1.25 µM,[2]; Well no.=3354,88.9%
C[C@@H]1OC(=O)[C@H]2C[C@H]3CCCC[C@@H]3[C@@H](/C=C/[C@H]3CCC[C@H](C)N3C)[C@@H]12 [(+)-Himbacine],remaining activity at 3.75 µM,[1]; Well no.=706,98.4%
same,remaining activity at 1.25 µM,[2]; Well no.=706,99.2%
COc1ccc2c(c1OC)C(=O)O[C@H]2[C@@H]1c2cc3c(cc2CCN1C)OCO3 [(+)-Hydrastine],remaining activity at 3.75 µM,[1]; Well no.=614,97.7%
same,remaining activity at 1.25 µM,[2]; Well no.=614,96.4%
COc1ccc2c(c1O)-c1c(OC)c(OC)cc3c1[C@H](C2)N(C)CC3 [(+)-Isocorydine hydrochloride],remaining activity at 3.75 µM,[1]; Well no.=3244,95.5%
same,remaining activity at 1.25 µM,[2]; Well no.=3244,93.2%
C[C@]12N[C@H](Cc3ccccc31)c1ccccc12 [(+)-MK-801 hydrogen maleate],remaining activity at 3.75 µM,[1]; Well no.=1133,92.1%
same,remaining activity at 1.25 µM,[2]; Well no.=1133,98.4%
C[C@@H]1O[C@H](C[N+](C)(C)C)C[C@H]1O [(+)-Muscarine chloride],remaining activity at 3.75 µM,[1]; Well no.=3254,99.2%
same,remaining activity at 1.25 µM,[2]; Well no.=3254,97.9%
CC[C@@H]1C(=O)OC[C@@H]1Cc1cncn1C [(+)-Pilocarpine hydrochloride],remaining activity at 3.75 µM,[1]; Well no.=1102,96.8%
same,remaining activity at 1.25 µM,[2]; Well no.=1102,96.5%
N[C@@H](Cn1oc(=O)[nH]c1=O)C(=O)O [(+)-Quisqualic acid],remaining activity at 3.75 µM,[1]; Well no.=1507,97.1%
same,remaining activity at 1.25 µM,[2]; Well no.=1507,96.2%
O=C1c2c(O)cc(O)cc2O[C@H](c2ccc(O)c(O)c2)[C@H]1O [(+)-Taxifolin],remaining activity at 3.75 µM,[1]; Well no.=3825,101%
same,remaining activity at 1.25 µM,[2]; Well no.=3825,101%
COc1cc2c(cc1OC)[C@H]1CC(=O)[C@H](CC(C)C)CN1CC2 [(+)-Tetrabenazine],remaining activity at 3.75 µM,[1]; Well no.=8086,108%
same,remaining activity at 1.25 µM,[2]; Well no.=8086,107%
COc1cc2c3cc1Oc1cc(ccc1O)C[C@@H]1c4c(cc(OC)c(O)c4Oc4ccc(cc4)C[C@@H]3N(C)CC2)CC[N+]1(C)C [(+)-Tubocurarine chloride],remaining activity at 3.75 µM,[1]; Well no.=3471,104%
same,remaining activity at 1.25 µM,[2]; Well no.=3471,103%
CC(=O)C1=C(O)C=C2Oc3c(C(C)=O)c(O)c(C)c(O)c3[C@@]2(C)C1=O [(+)-Usnic acid],remaining activity at 3.75 µM,[1]; Well no.=3394,102%
same,remaining activity at 1.25 µM,[2]; Well no.=3394,98.2%
C[C@H]1OC[C@@H](C[N+](C)(C)C)O1 [(+)-cis-Dioxolane iodide],remaining activity at 3.75 µM,[1]; Well no.=579,100%
same,remaining activity at 1.25 µM,[2]; Well no.=579,103%
Oc1ccc([C@H]2COc3cc(O)ccc3C2)cc1 [(-)-(S)-Equol],remaining activity at 3.75 µM,[1]; Well no.=7405,107%
same,remaining activity at 1.25 µM,[2]; Well no.=7405,110%
c1cc2c(cc1[C@H]1OC[C@@H]3[C@H]1CO[C@H]3c1ccc3c(c1)OCO3)OCO2 [(-)-Asarinin],remaining activity at 3.75 µM,[1]; Well no.=3160,101%
same,remaining activity at 1.25 µM,[2]; Well no.=3160,98.8%
N[C@H](CC(=O)O)C(=O)O [(-)-Aspartic acid],remaining activity at 3.75 µM,[1]; Well no.=7063,102%
same,remaining activity at 1.25 µM,[2]; Well no.=7063,103%
C=C[C@H]1CN2CC[C@H]1C[C@H]2[C@H](O)c1ccnc2ccccc12 [(-)-Cinchonidine],remaining activity at 3.75 µM,[1]; Well no.=3196,102%
same,remaining activity at 1.25 µM,[2]; Well no.=3196,101%
CN1C(=O)CC[C@H]1c1cccnc1 [(-)-Cotinine],remaining activity at 3.75 µM,[1]; Well no.=228,99.4%
same,remaining activity at 3.75 µM,[1]; Well no.=3103,101%
same,remaining activity at 1.25 µM,[2]; Well no.=228,97.9%
same,remaining activity at 1.25 µM,[2]; Well no.=3103,99.3%
O=c1cccc2n1C[C@H]1CNC[C@H]2C1 [(-)-Cytisine],remaining activity at 3.75 µM,[1]; Well no.=3797,101%
same,remaining activity at 1.25 µM,[2]; Well no.=3797,97.8%
CC[C@]12CCCN3CCc4c(n(c5ccccc45)C(=O)C1)[C@@H]32 [(-)-Eburnamonine],remaining activity at 3.75 µM,[1]; Well no.=3380,95%
same,remaining activity at 1.25 µM,[2]; Well no.=3380,96.6%
Oc1cc(O)c2c(c1)O[C@H](c1ccc(O)c(O)c1)[C@H](O)C2 [(-)-Epicatechin],remaining activity at 3.75 µM,[1]; Well no.=3348,98.5%
same,remaining activity at 1.25 µM,[2]; Well no.=3348,96.9%
CNC[C@H](O)c1ccc(O)c(O)c1 [(-)-Epinephrine bitartrate],remaining activity at 3.75 µM,[1]; Well no.=509,99.3%
same,remaining activity at 1.25 µM,[2]; Well no.=509,102%
CN1CC[C@@]2(C)c3cc(O)ccc3N(C)[C@@H]12 [(-)-Eseroline fumarate],remaining activity at 3.75 µM,[1]; Well no.=751,93.5%
same,remaining activity at 1.25 µM,[2]; Well no.=751,96.8%
C[C@H](O)[C@@H](O)[C@@H](O)[C@H](O)C=O [(-)-Fucose],remaining activity at 3.75 µM,[1]; Well no.=6549,91.4%
same,remaining activity at 1.25 µM,[2]; Well no.=6549,98.1%
C[C@H]1CC[C@@H](C(C)(C)O)CC2=C1CC[C@@H]2C [(-)-Guaiol],remaining activity at 3.75 µM,[1]; Well no.=3076,99.3%
same,remaining activity at 1.25 µM,[2]; Well no.=3076,98.4%
CC(C)NC[C@H](O)c1ccc(O)c(O)c1 [(-)-Isoproterenol hydrochloride],remaining activity at 3.75 µM,[1]; Well no.=917,106%
same,remaining activity at 1.25 µM,[2]; Well no.=917,107%
COC(=O)[C@H]1[C@H]2C[C@H]3c4[nH]c5cc(OC)ccc5c4CCN3C[C@H]2C[C@@H](OC(=O)c2cc(OC)c(OC)c(OC)c2)[C@@H]1OC [(-)-Isoreserpine],remaining activity at 3.75 µM,[1]; Well no.=3246,100%
same,remaining activity at 1.25 µM,[2]; Well no.=3246,102%
C[C@@]12N[C@@H](Cc3ccccc31)c1ccccc12 [(-)-MK-801 hydrogen maleate],remaining activity at 3.75 µM,[1]; Well no.=799,99.2%
same,remaining activity at 1.25 µM,[2]; Well no.=799,101%
COc1ccc2cc([C@@H](C)C(=O)O)ccc2c1 [(-)-Naproxen sodium],remaining activity at 3.75 µM,[1]; Well no.=1110,97.6%
same,remaining activity at 1.25 µM,[2]; Well no.=1110,95.3%
CN1CCC[C@H]1c1cccnc1 [(-)-Nicotine],remaining activity at 3.75 µM,[1]; Well no.=3328,99.2%
same,remaining activity at 1.25 µM,[2]; Well no.=3328,96.5%
CCCN1CCC[C@@H]2Cc3[nH]ncc3C[C@H]21 [(-)-Quinpirole hydrochloride],remaining activity at 3.75 µM,[1]; Well no.=1269,99.7%
same,remaining activity at 1.25 µM,[2]; Well no.=1269,96.5%
C[N+]1(C)[C@@H]2C[C@@H](OC(=O)[C@H](CO)c3ccccc3)C[C@H]1[C@@H]1O[C@@H]12 [(-)-Scopolamine methyl bromide],remaining activity at 3.75 µM,[1]; Well no.=1510,97.5%
same,remaining activity at 1.25 µM,[2]; Well no.=1510,96.7%
CCN1CCC[C@H]1CNC(=O)c1cc(S(N)(=O)=O)ccc1OC [(-)-Sulpiride],remaining activity at 3.75 µM,[1]; Well no.=1364,99.2%
same,remaining activity at 1.25 µM,[2]; Well no.=1364,101%
"CC1=C(O)C(=O)[C@@H]2O[C@@H]2C1=O [(-)-Terreic acid - (1R,6S)-3-Hydroxy-4-methyl-7-oxabicyclo[4.1.0]hept-3-ene-2,5-dione]",remaining activity at 3.75 µM,[1]; Well no.=2398,104%
same,remaining activity at 1.25 µM,[2]; Well no.=2398,99.2%
NC(=O)c1cccc(NC(=O)/C=C/c2c[nH]c3ccccc23)c1 [(E)-3-(3-(1H-indol-3-yl)acrylamido)benzamide],remaining activity at 3.75 µM,[1]; Well no.=5576,93.4%
same,remaining activity at 1.25 µM,[2]; Well no.=5576,93.5%
NC/C=C/C(=O)O [(E)-4-amino-2-butenoic acid],remaining activity at 3.75 µM,[1]; Well no.=1283,101%
same,remaining activity at 1.25 µM,[2]; Well no.=1283,103%
